Columns and labels:
Type in all cases: cell-based
SMARCA2 [1] = target: T1, SMARCA2 (Homo sapiens, UniProt P51531); test: MSD SMARCA2 degradation in A549 cell line; conditions: 24 h; for Dmax: A549, A549 cells; for DC50: A549 cells, read-out: SMARCA2 MSD A549 degradation 24 h: Average external-Abs DC50
In short: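 A549 cells treated 24 h with compound, 3-fold series from 1000 nM. Lysates captured on MSD plates and SMARCA2 quantified with anti-SMARCA2 and SULFO-TAG secondary antibodies (electrochemiluminescence). DC50 and Dmax (% degradation at 24 h) reported as letter bins.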

SMARCA4 = target: T2, SMARCA4 (Homo sapiens, UniProt P51532); test: SMARCA4 Western blot degradation in MV4-11 cells; conditions: 24 h; for Dmax: MV4-11, MV4-11 cells, read-out: SMARCA4 MSD MV411 degradation 24 h: average Dmax %; for DC50: MV4-11 cells, read-out: SMARCA4 MSD MV411 degradation 24 h: Mean external-Abs DC50
T2 construct: SMARCA2/SMARCA4 protein degradation selectivity in MV4-11 cells; endogenous in cells; host or cells: MV4-11
In short: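 MV4-11 cells (4×10^6/well) treated with compound for 24 h, lysed in RIPA with protease/phosphatase inhibitors, and SMARCA2, SMARCA4 and beta-actin detected by Western blot with LI-COR readout. Values reported as letter-coded DC50, 24 h Dmax % and SMARCA2/4 selectivity fold.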

SMARCA2 [2] = target: T1, SMARCA2; test: SMARCA2 Western blot degradation in MV4-11 cells; design: SMARCA2/SMARCA4 protein degradation selectivity in MV4-11 cells; endogenous in cells; host or cells: MV4-11; conditions: for Dmax: MV4-11, MV4-11 cells, read-out: SMARCA2 MSD MV411 degradation 24 h: average Dmax %; for Dmax / DC50: 24 h; for DC50 / Selectivity in MV411: MV4-11 cells; for DC50: read-out: SMARCA2 MSD MV411 degradation 24 h: Mean external-Abs DC50; for Selectivity in MV411: SMARCA2/4 selectivity

T2 sequence (P51532 whole entry): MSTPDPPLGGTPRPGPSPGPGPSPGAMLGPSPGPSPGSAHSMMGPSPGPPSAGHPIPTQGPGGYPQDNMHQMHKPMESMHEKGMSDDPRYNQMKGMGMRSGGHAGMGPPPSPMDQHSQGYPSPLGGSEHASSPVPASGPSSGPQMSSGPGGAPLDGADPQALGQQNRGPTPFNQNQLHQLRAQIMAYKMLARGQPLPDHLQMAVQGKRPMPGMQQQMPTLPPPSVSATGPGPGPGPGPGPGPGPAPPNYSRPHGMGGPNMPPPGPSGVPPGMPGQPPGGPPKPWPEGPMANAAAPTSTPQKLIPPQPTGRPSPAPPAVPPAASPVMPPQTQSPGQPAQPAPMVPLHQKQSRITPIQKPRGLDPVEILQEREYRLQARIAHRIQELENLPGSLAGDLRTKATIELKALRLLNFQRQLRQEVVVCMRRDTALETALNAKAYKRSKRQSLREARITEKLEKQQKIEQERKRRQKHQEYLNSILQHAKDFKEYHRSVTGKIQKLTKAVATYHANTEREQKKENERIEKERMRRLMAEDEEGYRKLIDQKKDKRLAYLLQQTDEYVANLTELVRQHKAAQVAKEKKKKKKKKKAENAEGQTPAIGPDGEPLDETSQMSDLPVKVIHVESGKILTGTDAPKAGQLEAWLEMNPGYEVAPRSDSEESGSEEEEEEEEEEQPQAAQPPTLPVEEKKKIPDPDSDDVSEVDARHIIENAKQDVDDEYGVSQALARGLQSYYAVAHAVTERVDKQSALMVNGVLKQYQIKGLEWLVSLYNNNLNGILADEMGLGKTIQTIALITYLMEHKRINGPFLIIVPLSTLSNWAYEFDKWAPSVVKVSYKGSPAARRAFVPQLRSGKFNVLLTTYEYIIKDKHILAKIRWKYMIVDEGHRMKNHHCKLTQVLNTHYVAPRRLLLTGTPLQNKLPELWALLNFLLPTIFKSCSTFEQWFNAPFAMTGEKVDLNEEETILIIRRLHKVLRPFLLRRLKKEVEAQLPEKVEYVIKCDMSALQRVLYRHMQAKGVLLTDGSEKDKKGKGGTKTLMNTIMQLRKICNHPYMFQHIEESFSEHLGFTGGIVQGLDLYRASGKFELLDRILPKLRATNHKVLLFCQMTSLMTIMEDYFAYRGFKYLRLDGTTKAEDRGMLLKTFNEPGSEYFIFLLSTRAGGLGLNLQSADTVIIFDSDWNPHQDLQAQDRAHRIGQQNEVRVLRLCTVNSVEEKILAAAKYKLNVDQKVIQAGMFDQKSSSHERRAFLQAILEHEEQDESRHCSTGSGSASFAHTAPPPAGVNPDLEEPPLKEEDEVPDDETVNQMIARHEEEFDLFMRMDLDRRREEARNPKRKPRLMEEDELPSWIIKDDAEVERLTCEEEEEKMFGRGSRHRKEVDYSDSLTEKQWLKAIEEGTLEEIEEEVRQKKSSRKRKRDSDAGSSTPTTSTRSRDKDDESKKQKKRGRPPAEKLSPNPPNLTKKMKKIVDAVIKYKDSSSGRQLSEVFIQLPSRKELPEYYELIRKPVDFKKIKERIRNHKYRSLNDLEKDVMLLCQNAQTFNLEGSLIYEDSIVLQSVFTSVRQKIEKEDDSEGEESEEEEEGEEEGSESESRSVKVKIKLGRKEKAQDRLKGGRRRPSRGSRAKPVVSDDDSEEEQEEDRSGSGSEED
T1 sequence (P51531 whole entry): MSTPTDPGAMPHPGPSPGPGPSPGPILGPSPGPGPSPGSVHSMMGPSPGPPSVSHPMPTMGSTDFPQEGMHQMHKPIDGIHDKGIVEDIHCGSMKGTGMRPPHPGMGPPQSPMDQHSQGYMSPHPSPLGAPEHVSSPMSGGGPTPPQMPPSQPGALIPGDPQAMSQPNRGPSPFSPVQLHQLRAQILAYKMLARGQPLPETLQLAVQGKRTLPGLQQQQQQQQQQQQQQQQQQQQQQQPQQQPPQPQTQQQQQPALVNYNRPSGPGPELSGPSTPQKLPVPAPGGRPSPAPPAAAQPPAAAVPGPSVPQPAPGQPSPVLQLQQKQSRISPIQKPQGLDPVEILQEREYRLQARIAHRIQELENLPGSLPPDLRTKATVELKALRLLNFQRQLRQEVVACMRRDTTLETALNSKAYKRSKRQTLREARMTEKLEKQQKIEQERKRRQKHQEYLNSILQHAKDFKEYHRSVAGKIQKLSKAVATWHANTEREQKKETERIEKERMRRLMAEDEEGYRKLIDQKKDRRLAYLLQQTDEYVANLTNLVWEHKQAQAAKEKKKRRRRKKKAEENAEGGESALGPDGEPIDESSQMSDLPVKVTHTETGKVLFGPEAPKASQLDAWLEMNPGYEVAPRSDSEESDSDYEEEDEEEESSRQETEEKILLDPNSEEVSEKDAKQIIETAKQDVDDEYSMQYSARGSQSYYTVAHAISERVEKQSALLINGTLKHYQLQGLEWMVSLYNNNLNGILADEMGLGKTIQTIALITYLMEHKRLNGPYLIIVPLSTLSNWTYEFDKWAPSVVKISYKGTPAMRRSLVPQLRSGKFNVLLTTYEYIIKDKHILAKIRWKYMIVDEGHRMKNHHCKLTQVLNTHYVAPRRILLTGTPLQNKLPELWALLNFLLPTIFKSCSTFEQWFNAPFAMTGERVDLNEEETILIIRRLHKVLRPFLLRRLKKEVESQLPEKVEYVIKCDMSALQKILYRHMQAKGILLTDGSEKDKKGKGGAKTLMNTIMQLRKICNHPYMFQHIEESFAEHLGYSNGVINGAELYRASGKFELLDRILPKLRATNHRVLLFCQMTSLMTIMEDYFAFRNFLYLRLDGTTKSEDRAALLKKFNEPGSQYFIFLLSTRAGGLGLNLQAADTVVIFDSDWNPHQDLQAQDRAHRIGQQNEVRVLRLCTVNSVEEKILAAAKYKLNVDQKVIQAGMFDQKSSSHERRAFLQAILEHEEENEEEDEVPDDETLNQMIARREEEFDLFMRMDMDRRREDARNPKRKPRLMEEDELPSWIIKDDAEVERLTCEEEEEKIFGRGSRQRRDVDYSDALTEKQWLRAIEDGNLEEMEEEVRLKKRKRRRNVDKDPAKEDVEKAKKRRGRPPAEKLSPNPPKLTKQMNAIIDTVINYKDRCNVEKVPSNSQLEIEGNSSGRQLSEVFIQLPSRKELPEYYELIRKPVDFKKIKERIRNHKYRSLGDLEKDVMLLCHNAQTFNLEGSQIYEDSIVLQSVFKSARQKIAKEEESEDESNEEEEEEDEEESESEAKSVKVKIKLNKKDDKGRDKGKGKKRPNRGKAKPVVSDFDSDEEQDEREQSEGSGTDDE

Dmax (SMARCA2 [1]) [%] | DC50 (SMARCA2 [1]) [nM] | Dmax (SMARCA4) [%] | DC50 (SMARCA4) [nM] | Dmax (SMARCA2 [2]) [%] | DC50 (SMARCA2 [2]) [nM] | Selectivity in MV411 (SMARCA2 [2]) | SMILES
< 50 | > 100 | < 50 | > 100 | < 50 | > 100 | C (C (10-100 fold)) | C#Cc1ccc(CNC(=O)[C@@H]2C[C@@H](O)CN2C(=O)[C@@H](N(CCN(C)C)C(=O)N2CC3(CC(N4CCC(c5cnc(N6CCc7[nH]c8nnc(-c9ccccc9O)cc8c7[C@H]6C)nc5)CC4)C3)C2)C(C)(C)C)cc1 [I-141]
> 90 | < 10 | > 90 | 10 to 100 | > 90 | 1 to 10 | C (C (10-100 fold)) | C#Cc1ccc(CNC(=O)[C@@H]2C[C@@H](O)CN2C(=O)[C@@H](NC(=O)N2CC3(CC(N4CCC(c5cnc(N6CCc7[nH]c8nnc(-c9ccccc9O)cc8c7[C@H]6C)nc5)CC4)C3)C2)C(C)(C)C)c(OCCO)c1 [I-143]
> 90 | 10 to 50 | 70 to 90 | > 100 | 70 to 90 | 1 to 10 | C (C (10-100 fold)) | C#Cc1ccc(CNC(=O)[C@@H]2C[C@@H](O)CN2C(=O)[C@@H](NC(=O)N2CC3(CC(N4CCC(c5cnc(N6CCc7[nH]c8nnc(-c9ccccc9O)cc8c7[C@H]6C)nc5)CC4)C3)C2)C(C)(C)C)c(OCC(=O)O)c1 [I-144]
> 90 | 10 to 50 | > 90 | 10 to 100 | > 90 | < 1 | C (C (10-100 fold)) | C#Cc1ccc(CNC(=O)[C@@H]2C[C@@H](O)CN2C(=O)[C@@H](NC(=O)N2CC3(CC(N4CCC(c5cnc(N6CCc7[nH]c8nnc(-c9ccccc9O)cc8c7[C@H]6C)nc5)CC4)C3)C2)C(C)(C)C)c(OCCCC(=O)O)c1 [I-145]
> 90 | < 10 | 70 to 90 | 10 to 100 | > 90 | 1 to 10 | C (C (10-100 fold)) | C#Cc1ccc(CNC(=O)[C@@H]2C[C@@H](O)CN2C(=O)[C@@H](NC(=O)N2CC3(CC(N4CCC(c5cnc(N6CCc7[nH]c8nnc(-c9ccccc9O)cc8c7[C@H]6CO)nc5)CC4)C3)C2)C(C)(C)C)cc1 [I-146]
> 90 | 50 to 100 | 70 to 90 | 10 to 100 | > 90 | 1 to 10 | D (D (<10 fold)) | C#Cc1ccc(CNC(=O)[C@@H]2C[C@@H](O)CN2C(=O)[C@@H](NC(=O)N2CC3(CC(N4CCC(c5cnc(N6CCc7[nH]c8nnc(-c9ccccc9O)cc8c7[C@@H]6CO)nc5)CC4)C3)C2)C(C)(C)C)cc1 [I-147]
> 90 | 50 to 100 | < 50 | > 100 | 70 to 90 | 10 to 100 | B (B (>100-500 fold)) | Cc1ncsc1-c1ccc(CNC(=O)[C@@H]2C[C@@H](O)CN2C(=O)[C@@H](NC(=O)[C@H]2CCC3(CC2)C[C@H](N2CCC(c4ccc(N5CCN6c7cc(-c8ccccc8O)nnc7NC[C@H]6C5)nc4)CC2)C3)C(C)(C)C)cc1 (some centres unmarked) [I-148]
> 90 | 10 to 50 | 70 to 90 | > 100 | 70 to 90 | 1 to 10 | C (C (10-100 fold)) | C#Cc1ccc([C@H](C)NC(=O)[C@@H]2C[C@@H](O)CN2C(=O)[C@@H](OC(=O)N2CC3(CC(N4CCC(c5cnc(N6CCc7[nH]c8nnc(-c9ccccc9O)cc8c7[C@H]6C)nc5)CC4)C3)C2)C(C)(C)C)cc1 [I-150]
> 90 | 10 to 50 | 50 to 70 | > 100 | 70 to 90 | 1 to 10 | C (C (10-100 fold)) | C#Cc1ccc([C@H](C)NC(=O)[C@@H]2C[C@@H](O)CN2C(=O)[C@@H](NC(=O)N2CC3(CC(N4CCC(c5cnc(N6CCc7[nH]c8nnc(-c9ccccc9O)cc8c7[C@H]6C)nc5)CC4)C3)C2)C(C)(C)C)cc1 [I-151]
> 90 | > 100 | 50 to 70 | > 100 | 50 to 70 | 10 to 100 | B (B (>100-500 fold)) | C#Cc1ccc(CNC(=O)[C@@H]2C[C@@H](O)CN2C(=O)[C@@H](NC(=O)N2CCN(CC3CCN(c4cnc(N5CCc6[nH]c7nnc(-c8ccccc8O)cc7c6[C@H]5C)nc4)CC3)CC2)C(C)(C)C)cc1 [I-159]
> 90 | > 100 | > 90 | > 100 | 70 to 90 | 10 to 100 | D (D (<10 fold)) | C#Cc1ccc(CNC(=O)[C@@H]2C[C@@H](O)CN2C(=O)[C@@H](NC(=O)N2CCN(CC3CCN(c4cnc(N5CCc6[nH]c7nnc(-c8ccccc8O)cc7c6[C@@H]5C)nc4)CC3)CC2)C(C)(C)C)cc1 [I-160]
> 90 | 10 to 50 | 50 to 70 | > 100 | 70 to 90 | < 1 | B (B (>100-500 fold)) | C#Cc1ccc(CNC(=O)[C@@H]2C[C@@H](O)CN2C(=O)[C@@H](NC(=O)N2CCN(CC3CCN(c4cnc(N5CCN6c7cc(-c8ccccc8O)nnc7NC[C@H]6C5)nc4)CC3)CC2)C(C)(C)C)cc1 [I-163]
> 90 | > 100 | < 50 | > 100 | 70 to 90 | 10 to 100 | B (B (>100-500 fold)) | C#Cc1ccc(CNC(=O)[C@@H]2C[C@@H](O)CN2C(=O)[C@@H](NC(=O)N2CC3(CN(CC4CCN(c5cnc(N6CCc7[nH]c8nnc(-c9ccccc9O)cc8c7[C@H]6C)nc5)CC4)C3)C2)C(C)(C)C)cc1 [I-164]
> 90 | > 100 | 70 to 90 | > 100 | 70 to 90 | 10 to 100 | D (D (<10 fold)) | C#Cc1ccc(CNC(=O)[C@@H]2C[C@@H](O)CN2C(=O)[C@@H](NC(=O)N2CC3(CN(CC4CCN(c5cnc(N6CCc7[nH]c8nnc(-c9ccccc9O)cc8c7[C@@H]6C)nc5)CC4)C3)C2)C(C)(C)C)cc1 [I-165]
> 90 | < 10 | > 90 | 10 to 100 | > 90 | 1 to 10 | C (C (10-100 fold)) | C#Cc1ccc(CNC(=O)[C@@H]2C[C@@H](O)CN2C(=O)[C@@H](NC(=O)N2CC3(CC(N4CCC(c5cnc(N6CCc7[nH]c8nnc(-c9ccccc9O)cc8c7[C@H]6C)nc5)CC4)C3)C2)C(C)(C)C)c(O)c1 [I-166]
> 90 | 10 to 50 | 70 to 90 | > 100 | 70 to 90 | 1 to 10 | C (C (10-100 fold)) | C#Cc1ccc([C@H](C)NC(=O)[C@@H]2C[C@@H](O)CN2C(=O)[C@@H](NC(=O)N2CC3(CC(N4CCC(c5cnc(N6CCc7[nH]c8nnc(-c9ccccc9O)cc8c7[C@H]6C)nc5)CC4)C3)C2)C(C)(C)C)c(OC)c1 [I-167]
> 90 | < 10 | > 90 | < 1 | > 90 | < 1 | C (C (10-100 fold)) | C#Cc1ccc([C@H](CO)NC(=O)[C@@H]2C[C@@H](O)CN2C(=O)[C@@H](NC(=O)N2CC3(CC(N4CCC(c5cnc(N6CCc7[nH]c8nnc(-c9ccccc9O)cc8c7[C@H]6C)nc5)CC4)C3)C2)C(C)(C)C)cc1 [I-168]
> 90 | 10 to 50 | < 50 | > 100 | 70 to 90 | 1 to 10 | B (B (>100-500 fold)) | C#Cc1ccc([C@H](CCO)NC(=O)[C@@H]2C[C@@H](O)CN2C(=O)[C@@H](NC(=O)N2CC3(CC(N4CCC(c5cnc(N6CCc7[nH]c8nnc(-c9ccccc9O)cc8c7[C@H]6C)nc5)CC4)C3)C2)C(C)(C)C)cc1 [I-169]
> 90 | > 100 | < 50 | > 100 | 50 to 70 | 10 to 100 | C (C (10-100 fold)) | C#Cc1ccc(CNC(=O)[C@@H]2C[C@@H](O)CN2C(=O)[C@@H](NC(=O)N2CC3(CC(N4C[C@H]5CN(c6cnc(N7CCc8[nH]c9nnc(-c%10ccccc%10O)cc9c8[C@H]7C)nc6)C[C@H]5C4)C3)C2)C(C)(C)C)cc1 [I-171]
> 90 | > 100 | 70 to 90 | > 100 | 50 to 70 | 10 to 100 | C (C (10-100 fold)) | C#Cc1ccc(CNC(=O)[C@@H]2C[C@@H](O)CN2C(=O)[C@@H](NC(=O)N2CC3(CC(N4C[C@H]5CN(c6cnc(N7CCc8[nH]c9nnc(-c%10ccccc%10O)cc9c8[C@@H]7C)nc6)C[C@H]5C4)C3)C2)C(C)(C)C)cc1 [I-172]

Reference: patent US20250170248A1, “SMARCA DEGRADERS AND USES THEREOF” (Kymera Therapeutics, Inc., priority 2021, published 2025)
